This note sets out measurements from PubChem BioAssay (NCI).

Structures are written as SMILES.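 Cultured in 96-well plates, cells were exposed to test compound for 48 hours across five concentrations. GI50 = concentration required for 50% inhibition of growth. The concentration for full growth arrest is given as TGI.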

Test systems include 786-0 renal; ACHN renal; CCRF-CEM leukemia; HCT-116 colon; MDA-MB-231 breast; OVCAR-3 ovarian; PC-3 prostate; SN12C renal; UO-31 renal; SNB-75 CNS.
Common to all, as to assay: DTP human tumour cell line panel, 48 h

With `NS(=O)(=O)c1ccc(C(=O)O)cc1`, the TGI in the test with 786-0 renal, in the test with ACHN renal, in the test with CCRF-CEM leukemia, with HCT-116 colon, in the test with MDA-MB-231 breast and in the test on OVCAR-3 ovarian was over 100 µM throughout. For the same molecule, the total growth inhibition concentration (TGI) with PC-3 prostate, in the test on SN12C renal and in the test on UO-31 renal was over 100 µM throughout.
Turning to `ClCCN(CC#CCCCC#CCN(CCCl)CCCl)CCCl`, the total growth inhibition concentration (TGI) in the test on 786-0 renal was 20.7 µM; with ACHN renal, 15.2 µM; in the test on CCRF-CEM leukemia it was 10.6 µM; with HCT-116 colon, 25.3 µM; in the test on OVCAR-3 ovarian it was 26.7 µM; with SN12C renal it was 21.2 µM. The concentration for total growth inhibition (TGI) is 36.4 µM in the test with SNB-75 CNS and 47 µM with UO-31 renal.
For `CC1(C)CCc2cc3c(cc2O1)OC(C)(C)CC3=O`, the TGI in the test with ACHN renal, in the test on CCRF-CEM leukemia, in the test with HCT-116 colon, in the test on OVCAR-3 ovarian, with SN12C renal and in the test with SNB-75 CNS was over 100 µM in each case. This molecule also had a TGI in the test on UO-31 renal of over 100 µM.
Take `Cc1c2ccccc2c(CSC(=N)N)c2ccccc12`: the concentration for total growth inhibition (TGI) worked out at 0.745 µM in the test with 786-0 renal; 0.303 µM in the test on ACHN renal; 0.0588 µM with CCRF-CEM leukemia; 1.35 µM in the test with HCT-116 colon; 1.03 µM with MDA-MB-231 breast; 2.73 µM in the test on OVCAR-3 ovarian. Moreover, the TGI in the test on PC-3 prostate came out at 0.829 µM; with SN12C renal it was 0.903 µM; in the test on SNB-75 CNS, 0.445 µM; in the test with UO-31 renal it was 0.511 µM.
For `N=C(N)SC(c1ccccc1)c1ccccc1`, the total growth inhibition concentration (TGI) was 25.2 µM in the test with 786-0 renal; 29.8 µM with ACHN renal; 32.1 µM in the test with CCRF-CEM leukemia; 24.6 µM with HCT-116 colon; 33.5 µM in the test on MDA-MB-231 breast; 28.7 µM in the test with OVCAR-3 ovarian. Also, the concentration for total growth inhibition (TGI) is 27.3 µM with PC-3 prostate, 32.7 µM in the test on SN12C renal and 23.2 µM in the test with UO-31 renal.
With `CC(C)(c1ccccc1)c1ccc(Oc2ccc3c(c2)-c2nc-3nc3[nH]c(nc4nc(nc5[nH]c(n2)c2ccc(Oc6ccc(C(C)(C)c7ccccc7)cc6)cc52)-c2cc(Oc5ccc(C(C)(C)c6ccccc6)cc5)ccc2-4)c2ccc(Oc4ccc(C(C)(C)c5ccccc5)cc4)cc32)cc1`, the TGI with 786-0 renal was over 100 µM; in the test with ACHN renal it was over 100 µM; with CCRF-CEM leukemia, over 100 µM; with HCT-116 colon, over 100 µM; in the test with SNB-75 CNS it was 67.8 µM; with UO-31 renal it was over 100 µM.
Consider `Cn1c(=O)c2c(nc(N3CCOCC3)n2CCCNCC(O)c2ccc(O)c(O)c2)n(C)c1=O` (stereo unspecified), for which the concentration for total growth inhibition (TGI) with 786-0 renal, in the test with ACHN renal, in the test on CCRF-CEM leukemia, in the test on HCT-116 colon, in the test with MDA-MB-231 breast and in the test on OVCAR-3 ovarian was over 100 µM throughout. The total growth inhibition concentration (TGI) in the test on PC-3 prostate, with SN12C renal, in the test on SNB-75 CNS and in the test on UO-31 renal was over 100 µM each time.
Regarding `CC(C)C(C)C(O)C(O)C(C)C1CCC2C3COC(=O)C4CC(O)C(O)CC4(C)C3CCC12C` (stereo unspecified), the total growth inhibition concentration (TGI) with 786-0 renal was over 100 µM; in the test on ACHN renal, over 100 µM; in the test on CCRF-CEM leukemia, 67.5 µM; with HCT-116 colon, over 100 µM; with MDA-MB-231 breast, over 100 µM; with PC-3 prostate, over 100 µM. Moreover, the concentration for total growth inhibition (TGI) in the test on SN12C renal and in the test on UO-31 renal was over 100 µM each time.
For `CC1OC1P(=O)(O)O` (stereo unspecified), the TGI in the test on 786-0 renal, in the test with ACHN renal, with CCRF-CEM leukemia, with HCT-116 colon, in the test on MDA-MB-231 breast and in the test with OVCAR-3 ovarian was over 100 µM each time. For the same molecule, the TGI in the test with PC-3 prostate, in the test on SN12C renal, in the test with SNB-75 CNS and in the test with UO-31 renal was over 100 µM each time.
For `Cn1ncc2c(=O)[nH]c(-c3ccccc3)nc21`, the TGI with ACHN renal, with CCRF-CEM leukemia, in the test on SN12C renal, in the test with SNB-75 CNS and with UO-31 renal was over 100 µM in each case.
For the molecule `Cc1cc(N2CCCCC2)nc(NCc2cc(Nc3ccnc4cc(Cl)ccc34)ccc2F)n1`, the GI50 in the test with ACHN renal is 1.66 µM; in the test on CCRF-CEM leukemia, 0.921 µM; with HCT-116 colon, 1.64 µM; in the test on MDA-MB-231 breast, 1.81 µM; with OVCAR-3 ovarian it was 1.74 µM; in the test with PC-3 prostate, 1.9 µM. Moreover, the GI50 was 1.67 µM with SN12C renal, 1.39 µM with SNB-75 CNS and 1.61 µM in the test on UO-31 renal. For the same molecule, the TGI in the test with ACHN renal was 3.25 µM; in the test with CCRF-CEM leukemia, 4.33 µM; in the test on HCT-116 colon it was 3.5 µM; in the test on MDA-MB-231 breast, 3.5 µM; with OVCAR-3 ovarian it was 3.17 µM; with PC-3 prostate, 4.04 µM. In addition, the concentration for total growth inhibition (TGI) in the test with SN12C renal was found to be 3.62 µM; with SNB-75 CNS it was 2.83 µM; with UO-31 renal it was 3.13 µM.
On to `COc1ccc2c(c1)C(=O)c1c-2n(CCCCl)c(=O)c2cc([N+](=O)[O-])ccc12`, for which the total growth inhibition concentration (TGI) in the test on 786-0 renal is 0.159 µM; with CCRF-CEM leukemia it was 0.212 µM; in the test with HCT-116 colon it was 0.737 µM; with MDA-MB-231 breast, over 46 µM; in the test on OVCAR-3 ovarian, 14 µM; in the test on PC-3 prostate, over 100 µM. Moreover, the TGI is over 20.3 µM with SN12C renal and over 100 µM with SNB-75 CNS. Besides, the GI50 was under 0.01 µM in the test with ACHN renal, under 0.01 µM in the test with CCRF-CEM leukemia, 1.32 µM in the test with OVCAR-3 ovarian and 1.68 µM with PC-3 prostate.
In the case of `CCCCC1CCCCCCc2[nH]c(/C=C3\N=C(c4ccc[nH]4)C=C3OC)cc21` (stereo unspecified), the TGI was 0.101 µM in the test on 786-0 renal; 1.12 µM with ACHN renal; 0.566 µM in the test on CCRF-CEM leukemia; 0.0531 µM in the test on HCT-116 colon; 1.76 µM in the test on MDA-MB-231 breast; under 0.0224 µM in the test with OVCAR-3 ovarian. Besides, the TGI in the test on PC-3 prostate is 2.09 µM; in the test on SN12C renal, 1.32 µM; in the test on SNB-75 CNS it was 0.638 µM; with UO-31 renal, 0.071 µM.
Consider `CC1(C)CCCC2(C)C3=C(CCC12)C(=O)OC3` (stereo unspecified), for which the TGI in the test on 786-0 renal, in the test with ACHN renal, in the test on CCRF-CEM leukemia, with HCT-116 colon, with MDA-MB-231 breast and in the test on OVCAR-3 ovarian was over 100 µM throughout. For the same molecule, the concentration for total growth inhibition (TGI) in the test on PC-3 prostate, in the test with SN12C renal, in the test with SNB-75 CNS and in the test with UO-31 renal was over 100 µM throughout.
As to `COc1ccc(C(=O)NNC(=O)c2nsc3ccccc23)cc1`, the total growth inhibition concentration (TGI) in the test on CCRF-CEM leukemia, in the test with HCT-116 colon, with OVCAR-3 ovarian, in the test with SN12C renal and with UO-31 renal was over 100 µM throughout.
As for `CCc1cc(C)cc2[n+]1CC=C2C`, the concentration for total growth inhibition (TGI) in the test on 786-0 renal, in the test with ACHN renal, with OVCAR-3 ovarian, in the test with SN12C renal, with SNB-75 CNS and with UO-31 renal was over 100 µM each time.
`COC(=O)C12OCC34C(CC5C(C)C6=CC(=O)OC6=CC5(C)C3C(O)C1O)OC(=O)C(OC(C)=O)C24` (stereo unspecified): the TGI with 786-0 renal is 29.1 µM; in the test on ACHN renal, 38.9 µM; in the test with CCRF-CEM leukemia, 32.4 µM; in the test on HCT-116 colon, 37.2 µM; with OVCAR-3 ovarian it was 29.4 µM; with SN12C renal it was 39.9 µM. Besides, the TGI in the test on SNB-75 CNS was 42.1 µM; in the test on UO-31 renal, 46 µM. Moreover, the GI50 in the test with SNB-75 CNS was 14.7 µM.
As to `CCCCCCCCCCCCCCC(C(=O)[O-])[n+]1ccccc1` (stereo unspecified), the concentration for total growth inhibition (TGI) in the test on 786-0 renal, with ACHN renal, with CCRF-CEM leukemia, in the test on HCT-116 colon, with MDA-MB-231 breast and in the test on OVCAR-3 ovarian was over 100 µM in each case. For the same molecule, the total growth inhibition concentration (TGI) in the test on PC-3 prostate was 77.6 µM; in the test with SN12C renal, over 100 µM; in the test on SNB-75 CNS, over 100 µM; in the test on UO-31 renal it was over 100 µM.
Regarding `NCc1ccc(O)c(O)c1O`, the total growth inhibition concentration (TGI) with 786-0 renal worked out at 30.1 µM; in the test on ACHN renal, 55.4 µM; in the test with CCRF-CEM leukemia it was 56.6 µM; in the test on HCT-116 colon it was 30.5 µM; in the test on MDA-MB-231 breast, 43.5 µM; in the test with OVCAR-3 ovarian, 47 µM. In addition, the concentration for total growth inhibition (TGI) with PC-3 prostate was over 100 µM; with SN12C renal, 37.3 µM; in the test on SNB-75 CNS, over 100 µM; with UO-31 renal, over 100 µM.
As for `Cc1nc2ccccc2c(=O)n1Nc1ccc(C(=O)O)cc1`, the TGI in the test with CCRF-CEM leukemia, with HCT-116 colon, with OVCAR-3 ovarian, with SN12C renal, with SNB-75 CNS and in the test on UO-31 renal was over 100 µM in each case.
With `O=C(Nc1ccc(-n2ccc3c(NC(=O)c4ccccc4)ncnc32)cc1)Nc1ccc(Cl)c(C(F)(F)F)c1`, the GI50 is 1.58 µM with ACHN renal; 0.806 µM in the test with CCRF-CEM leukemia; 1.47 µM in the test with HCT-116 colon; 1.55 µM with MDA-MB-231 breast; 1.72 µM with OVCAR-3 ovarian; 1.25 µM in the test on PC-3 prostate. For the same molecule, the values for the GI50 in the test on SN12C renal, with SNB-75 CNS and in the test with UO-31 renal were 2.43 µM, 1.67 µM and 2.04 µM, respectively. For the same molecule, the TGI in the test with ACHN renal is 3.62 µM; in the test on CCRF-CEM leukemia, 3.73 µM; in the test on HCT-116 colon, 2.96 µM; in the test on MDA-MB-231 breast it was 3.66 µM; with OVCAR-3 ovarian, 3.22 µM; with PC-3 prostate, 3.01 µM. Also, the TGI was 6.58 µM in the test with SN12C renal, 8.08 µM in the test with SNB-75 CNS and 4.73 µM with UO-31 renal.
On to `O=C1CC(c2ccccc2)NCCCCN2CC(CN1)C(C(O)c1ccccc1)C2=O` (stereo unspecified), for which the TGI with 786-0 renal, with ACHN renal, in the test on CCRF-CEM leukemia, in the test on HCT-116 colon, with MDA-MB-231 breast and in the test with OVCAR-3 ovarian was over 100 µM throughout. Further, the concentration for total growth inhibition (TGI) with PC-3 prostate, in the test on SN12C renal, in the test on SNB-75 CNS and in the test with UO-31 renal was over 100 µM throughout.
`Nc1ccc([As](=O)(O)O)cc1`: the TGI in the test on 786-0 renal, in the test on ACHN renal, in the test on CCRF-CEM leukemia, in the test on HCT-116 colon, with MDA-MB-231 breast and in the test with OVCAR-3 ovarian was over 100 µM each time. For the same molecule, the total growth inhibition concentration (TGI) in the test with PC-3 prostate, with SN12C renal, in the test with SNB-75 CNS and in the test on UO-31 renal was over 100 µM in each case.

Usually TGI stands for the concentration giving total growth inhibition. As a reminder, the GI50 is the concentration that inhibits growth by half.
